The values below come from patent US3995058A, “Treatment of ethanol withdrawal symptoms with levodopa” (priority 1975, dated 1976).

Data set [1] has as its system parkinsonism tremor. To be noted: in vivo; cited from earlier work.
The subject of data set [2] is ethanol withdrawal head-twitches. The data set is described as follows: Suppression of ethanol withdrawal head-twitches in mice habituated to ethanol. The data set is classed as in vivo, mice (male T/O). The note with it: for ED50: Mus musculus; for suppression of head-twitches: mice undergoing ethanol withdrawal. The procedure:
(§1) Male T/O mice were habituated to ethanol by oral administration of aqueous ethanol solutions over three days. Ethanol was administered as a 40% w/v solution, the animals receiving 4 g/kg on the first day, 5 g/kg on the second day and 6 g/kg on the third day. Twenty-four hours after the third dose, approximately 12 hours after blood ethanol had fallen to zero, mice were observed over a period of 4 minutes in groups of five and the number of head-twitches were recorded for each animal. All animals received two doses of levodopa or vehicle, one 6 hours after the last dose of ethanol and the other one hour before observation of the animals. The amount of discoordination produced by each treatment was also determined by measuring the animals' ability to remain for 1 minute on a drum, 30 cm diameter, rotating at a speed of 1 rpm. Using a quantal method the median effective dose (ED50) to suppress head-twitches was determined. […] The ratio FD50 to ED50 gives the therapeutic ratio.
All drugs given one hour before observation except noradrenaline (35
minutes). Doses are expressed as mg/kg orally (P.O.), subcutaneously
(S.C.) or intracerebrally (I.C.V.). *Animals in levodopa experiment
received two doses of levodopa or vehicle, the first being given six hour
after the last dose of ethanol, the second one hour before observation.
The values indicated are computed from the doses of levodopa given on eac
(§2) occasion. The dose of each drug to discoordinate 50% of the animals (FD
(§3) 50) was compared with the dose that reduced to 50% the proportion of mice
(§4) showing head-twitches (ED 50).

Data set [3] can be described thus: Therapeutic ratio FD50/ED50 (discoordination against head-twitches). The note with it: mouse, in vivo. The procedure:
as §1, §2, §3, §4

The nature of data set [4]: Discoordination: ability to remain for 1 minute on a rotating drum. To be noted: mouse, in vivo; for TD50 at 1 h: po. The protocol: as §1, §2, §3
The subject of data set [5] is sleep. To be noted: cited from earlier work.
The subject of data set [6] is brain catecholamines. To be noted: increasing doses of levodopa; cited from earlier work.
In data set [7] the test system is discoordination. The data set is described as follows: Discoordination: ability to remain for 1 minute on a rotating drum. The note with it: mouse, in vivo. The protocol: as §1, §2, §3
Data set [8] deals with depression. The note with it: in vivo; cited from earlier work.
Data set [9] deals with delirium tremors or seizures. To be noted: severe cases of physical dependence; cited from earlier work.
The subject of data set [10] is withdrawal symptoms. Briefly: Production of withdrawal symptoms. The note with it: in vivo.

Where two headings read alike, the source gives them in different places.

Consider `NC(CO)C(=O)NNCc1cc(O)c(O)c(O)c1` (racemic) [N'-(D,L-seryl)-N"-(3,4,5-trihydroxybenzyl)-hydrazine], for which, in [1], the “control of parkinsonism tremor” value was “useful in the control of parkinsonism tremor”.
Turning to `CC(N)Cc1ccccc1.O=S(=O)(O)O` (centres unmarked) [Amphetamine sulphate], the ED50 in data set [2] (sc, 1 h, read-out: ED 50 value to reduce head-twitches (with 95% fiducial limits)) stood at 7.18 mg/kg. In addition, in data set [2] (subcutaneously), the suppression of head-twitches result is “complete suppression of head-twitches”.
For the compound `CCO` [Ethanol, ethanol], the selectivity ratio in data set [3] (po) was found to be 0.6. Further, in [2] (po, 1 h, P.O., one hour before observation, read-out: ED 50 value to reduce head-twitches (with 95% fiducial limits)), the ED50 was 3990 mg/kg. This compound also showed a TD50 at 1 h in [4] of 2500 mg/kg.
With `N[C@@H](Cc1ccc(O)c(O)c1)C(=O)O` [L-DOPA, L-β-3,4-dihydroxyphenylalanine], in [5] (increasing numbers of doses), the “effect on sleeping time with repeated doses” value is “this effect became smaller with increasing numbers of doses”. In addition, the “increase in sleeping time” value in [5] (single dose 400 mg/kg) was “three-fold increase in sleeping time”. Also, the selectivity ratio in data set [3] (po) came out at 3.5. Also, the “shift of brain catecholamine levels” value in [6] is “increasing shift of brain levels from dopamine to noradrenaline”. Besides, the ED50 in data set [2] (po, P.O.*, two doses: 6 h after last ethanol and 1 h before observation, per-occasion dose, limits 63-1213, read-out: ED 50 value to reduce head-twitches (with 95% fiducial limits)) turned out to be 232 mg/kg; in data set [2] (po, levodopa, text of summary, read-out: median effective dose (ED50) required to prevent or suppress withdrawal symptoms) it was 231 mg/kg. Besides, the animals discoordinated result in data set [7] is listed as “none of the animals were discoordinated”. In data set [4], this compound had a TD50 at 1 h above 800 mg/kg. For the same compound, in data set [8], the “therapeutic use in the treatment of depression” value was “of questionable value”.
In the case of `NC[C@H](O)c1ccc(O)c(O)c1` [Noradrenaline], the selectivity ratio in [3] is above 3.3. In addition, the ED50 in data set [2] (central, 35 min, I.C.V., 35 minutes before observation, read-out: ED 50 value to reduce head-twitches (with 95% fiducial limits)) stood at 0.003 mg/kg. Further, the suppression of head-twitches result in data set [2] (intracerebral injection) was “complete suppression of head-twitches”. Further, in data set [4] (icv or intrathecal), the TD50 at 35 min is above 0.01 mg/kg.
As for `CCCC(C)C1(CC)C(=O)NC(=O)NC1=O` (centres unmarked) [Pentobarbitone sodium], in data set [3] (po), the selectivity ratio was determined as 0.4. For the same compound, in [2] (po, 1 h, read-out: ED 50 value to reduce head-twitches (with 95% fiducial limits)), the ED50 was 231 mg/kg. The compound also yielded a TD50 at 1 h in [4] of 91 mg/kg.
In the case of `CN(C)CCCN1c2ccccc2Sc2ccc(Cl)cc21` [chlorpromazine], the “prevention of delirium tremors or seizures” value in data set [9] is on record as “ineffective to prevent delirium tremors or seizures”.
Take `CN(C)CCCN1c2ccccc2Sc2ccccc21` [promazine]: the “prevention of delirium tremors or seizures” value in data set [9] is “ineffective to prevent delirium tremors or seizures”.
Take `CC(N)(Cc1ccc(O)cc1)C(=O)O` (stereo not drawn) [α-methyl p-tyrosine]: the withdrawal symptoms produced entry in data set [10] is recorded as “produces withdrawal symptoms that can be reduced by anti-serotonin agents”.
For the compound `CC(Cc1ccc(O)c(O)c1)(NN)C(=O)O` (stereo not drawn) [α-methyl-dopa hydrazine], the “control of parkinsonism tremor” value in data set [1] is listed as “useful in the control of parkinsonism tremor”.

As usually defined, the TD50 is the dose at which the toxic effect under study appears in half of the subjects.
